Laboratory results taken from patent US20080045582A1, “ENA-78 Gene Polymorphisms and Protein Concentrations as Diagnostic and Prognostic Tools” (priority 2006, published 2008).

How the values were obtained:
ENA-78 [1] = assay: ENA-78 production by non-stimulated human umbilical vein endothelial cells, multiplex protein measurement; type: cell-based
Procedure: (§1) Human umbilical vein endothelial cells were obtained (Clonetics Cell Systems; Cambrex Bio Science Walkersville, Inc., Walkersville, Md.). Approximately 5×10^5 viable cells were seeded in endothelial cell growth-supplemented basal medium (EGM-2-endothelial cell medium-2; Cambrex Bio Science Walkersville, Inc.) and maintained at 37° C. under a 5% carbon dioxide atmosphere per manufacturer's protocol. The culture medium was changed 24 hours after seeding and every 48 hours thereafter until confluence. Cells were then treated with trypsin, seeded in a 48-well culture dish, and incubated under the conditions previously described. Cells used in this Example were from the third passage.
(§2) After cells reached 70-80% confluence in the culture dish, they were allowed to become quiescent in unsupplemented, serum-free medium for 24 hours before treatment and then placed in medium containing 2% fetal bovine serum. Atorvastatin (LKT Laboratories Inc., St. Paul, Minn.) was dissolved in dimethylsulfoxide (Sigma-Aldrich, St. Louis, Mo.). Cells were treated for 24 hours with atorvastatin 1-50 μM alone or with atorvastatin plus mevalonate 250 μM (Sigma-Aldrich). Controls were cells cultured without atorvastatin or atorvastatinmevalonate. […] All experiments were performed in duplicate.
(§3) After treatment, culture-conditioned media were collected, divided into aliquots, and stored at −80° C. for no longer than 7 days until multiplex measurement of chemokines, cytokines, and angiogenic factors was performed.
(§4) The culture-conditioned media protein content of epithelial neutrophil-activating peptide-78 (ENA-78), interleukin-8, (IL-8), monocyte chemotactic protein-1 (MCP-1), interleukin-6 (IL-6), interleukin-10 (IL-10), fibroblast growth factor (FGF), and granulocyte colony-stimulating factor (G-CSF) were measured by means of flow-based immunofluorescence multiplex detection (Fluorokine MAP Human Cytokine Panel; R&D Systems Inc., Minneapolis, Minn.) with the Luminex 100 IS platform (Luminex Corp., Austin, Tex.). Concentrations for each sample were normalized against milligrams of total protein by using a standard bicinchoninic acid protein assay (Pierce Biotechnology, Inc., Rockford, Ill.). Samples were assayed in duplicate.
(§5) Standard curves of best fit for each analyte were generated by plotting the median fluorescence intensities of the analyte standards against their known concentrations by using Beadview multiplex data analysis software version 1 (Upstate, Charlottesville, Va.).
(§6) Differences in biomolecular concentrations were compared by treatment group by applying one-way analysis of variance and a post-hoc Tukey's test as appropriate. The Jonckheere Terpstra test was performed to assess the trend for differences in biomolecular concentrations across concentrations of atorvastatin. […]

IL-8 = IL-8 production by non-stimulated human umbilical vein endothelial cells, multiplex protein measurement; type: cell-based
Procedure: as §1, §2, §3, §4, §5
Differences in biomolecular concentrations were compared by treatment group by applying one-way analysis of variance and a post-hoc Tukey's test as appropriate. The Jonckheere Terpstra test was performed to assess the trend for differences in biomolecular concentrations across concentrations of atorvastatin. A p value below 0.05 was considered to indicate a statistically significant difference. Statistical analyses were performed with SPSS software, version 11.5 (SPSS Inc., Chicago, Ill.).

MCP-1 = MCP-1 production by non-stimulated human umbilical vein endothelial cells, multiplex protein measurement; type: cell-based; conditions: highest concentration of atorvastatin plus mevalonate 250 μM
Procedure: as §1, §2, §3, §4, §5, §6

IL-6 = IL-6 production by non-stimulated human umbilical vein endothelial cells, multiplex protein measurement; type: cell-based; conditions: atorvastatin plus mevalonate 250 μM
Procedure: as §1, with “passage. […]” for “passage.”
as §4, with “Concentrations for each sample were normalized against milligrams of total protein by using a standard bicinchoninic acid protein assay (Pierce Biotechnology, Inc., Rockford, Ill.). Samples were assayed in duplicate.” left out

ENA-78 [2] = assay: IL-1beta-stimulated ENA-78 production from HUVECs, cytometric immunofluorescence; type: cell-based, human; conditions: for stimulation of ENA-78 production by IL-1beta, times that of basal production: FIG. 15
Procedure: Human umbilical vein endothelial cells (HUVECs) (Clonetics Cell Systems; Cambrex Bio Science Walkersville, Inc., Walkersville, USA) were cultured as previously described. Briefly, HUVECs between passes three and four were seeded at a density of 2.5×10^4 cells per cm^2 and cultured to 80% confluence with endothelial cell growth-supplemented medium (EGM-2-endothelial cell medium-2; Cambrex Bio Science Walkersville, Inc.). Once confluent, media was changed to serum free endothelial basal media (EBM-2-endothelial cell medium-2; Cambrex Bio Science Walkersville, Inc.) for 24 hours prior to treatment, in which EBM-2 media supplemented to a 2% FBS concentration was used. Treatments consisted of atorvastatin calcium (AT; LKT Laboratories Inc., St. […] All were dissolved in molecular grade water. All final DMSO concentrations were less then 0.1%. […] In experiments investigating the impact of AT on IL-1beta-stimulated ENA-78 production, HUVECs were pre-treated with AT followed by IL-1beta stimulation two hours later. […] In a separate set of experiments, cells were cultured with IL-1beta and AT in the presence or absence of mevalonate, FPP, and GGPP to determine whether AT inhibition of ENA-78 production was dependent on HMG-CoA reductase inhibition and subsequent downstream pathways. Cell culture supernates for all experiments were stored at -20° C. until analysis, which was performed within seven days. ENA-78 concentrations were measured and normalized to total protein content in cell culture supernates using cytometric immunofluorescence as previously described. Ribonucleic acid (RNA) was isolated using a commercial kit (RNeasy mini kit, Qiagen Inc., Valencia, USA). Complementary deoxyribonucleic acid (cDNA) conversion was performed by high capacity cDNA reverse transcription (Applied Biosystems, Foster City, USA) per protocol using roughly 2 μg of total RNA. RNA quality was assessed by absorbance (Nanodrop, Nanodrop Technologies, Wilmington, USA). Real-time reverse-transcription PCR (RT-PCR) was done using primer and probe sets for CXCL5 normalized to a housekeeping gene, glyceraldehyde-3-phosphate dehydrogenase (GAPDH; Taqman Gene Expression Assays, Applied Biosystems Inc.). […] PCR for both CXCL5 and GAPDH was performed at the same time using the following conditions: 95° C. for 2 minutes; 35 cycles of 95° C. for 30 seconds, 59° C. for 30 seconds, and 72° C. for 30 seconds; followed by 7 minutes of elongation at 72° C. Statistical differences in normalized protein concentrations and gene expression levels were determined by one way ANOVA and post-hoc Tukey analysis. […] An independent t-test was used to compare treatment differences at the same time points in the dose range analysis. […] Statistical analyses were performed with SPSS software, version 11.5 (SPSS Inc., Chicago, USA).

CXCL5 = CXCL5 gene expression in HUVECs, real-time RT-PCR normalized to GAPDH; type: cell-based, human; conditions: IL-1beta, 24 hours, FIG. 17
Procedure: Human umbilical vein endothelial cells (HUVECs) (Clonetics Cell Systems; Cambrex Bio Science Walkersville, Inc., Walkersville, USA) were cultured as previously described. Briefly, HUVECs between passes three and four were seeded at a density of 2.5×10^4 cells per cm^2 and cultured to 80% confluence with endothelial cell growth-supplemented medium (EGM-2-endothelial cell medium-2; Cambrex Bio Science Walkersville, Inc.). Once confluent, media was changed to serum free endothelial basal media (EBM-2-endothelial cell medium-2; Cambrex Bio Science Walkersville, Inc.) for 24 hours prior to treatment, in which EBM-2 media supplemented to a 2% FBS concentration was used. Treatments consisted of atorvastatin calcium (AT; LKT Laboratories Inc., St. […] All were dissolved in molecular grade water. All final DMSO concentrations were less then 0.1%. […] In experiments investigating the impact of AT on IL-1beta-stimulated ENA-78 production, HUVECs were pre-treated with AT followed by IL-1beta stimulation two hours later. […] In a separate set of experiments, cells were cultured with IL-1beta and AT in the presence or absence of mevalonate, FPP, and GGPP to determine whether AT inhibition of ENA-78 production was dependent on HMG-CoA reductase inhibition and subsequent downstream pathways. Cell culture supernates for all experiments were stored at -20° C. until analysis, which was performed within seven days. ENA-78 concentrations were measured and normalized to total protein content in cell culture supernates using cytometric immunofluorescence as previously described. Ribonucleic acid (RNA) was isolated using a commercial kit (RNeasy mini kit, Qiagen Inc., Valencia, USA). […] RNA quality was assessed by absorbance (Nanodrop, Nanodrop Technologies, Wilmington, USA). […] Statistical differences in normalized protein concentrations and gene expression levels were determined by one way ANOVA and post-hoc Tukey analysis. […]

[3] = highest concentration of atorvastatin

| Substance | effect of mevalonate cotreatment on atorvastatin effect on ENA-78 production (ENA-78 [1]; atorvastatin plus mevalonate 250 μM, 24 hours) | reversal of atorvastatin effects on ENA-78 by mevalonate (ENA-78 [1]; [3]) | reversal of atorvastatin effects on IL-8 by mevalonate (IL-8; [3]) | effect of addition of mevalonate on atorvastatin effect on IL-8 (IL-8; mevalonate 250 μM, all atorvastatin groups) | effect of mevalonate cotreatment on atorvastatin effect on MCP-1 (MCP-1) | effect of mevalonate on atorvastatin effect on IL-6 (IL-6) | effect of co-treatment on the effect of AT on IL-1beta-stimulated ENA-78 production (ENA-78 [2]; IL-1beta and AT 10 uM, mevalonate 250 μM, FPP 5 μM, GGPP 5 μM, FIG. 16) | stimulation of ENA-78 production by IL-1beta, times that of basal production (ENA-78 [2]; 4 hours) | stimulation of ENA-78 production by IL-1beta, times that of basal production (ENA-78 [2]; 12 hours) | stimulation of ENA-78 production by IL-1beta, times that of basal production (ENA-78 [2]; 24 hours) | stimulation of ENA-78 production by IL-1beta, times that of basal production (ENA-78 [2]; 48 hours) | IL-1beta stimulated ENA-78 production relative to constitutive concentrations (ENA-78 [2]; IL-1beta 2 ng/ml, FIG. 14) | IL-1beta stimulated ENA-78 production (ENA-78 [2]; IL-1beta 2 ng/ml, no AT (constitutive 69±11 pg/mg), FIG. 14) | IL-1beta-stimulated ENA-78 production (ENA-78 [2]; IL-1beta alone, mevalonate experiment, FIG. 16) | CXCL5 expression in HUVECs (CXCL5) |
| --- | --- | --- | --- | --- | --- | --- | --- | --- | --- | --- | --- | --- | --- | --- | --- |
| mevalonate | reversed | potentially incomplete reversal | potentially incomplete reversal | reversed | reversed | eliminated | partially reversed |  |  |  |  |  |  |  |  |
| interleukin-1beta [IL-1beta] |  |  |  |  |  |  |  | 29 times | 282 times | 892 times | 1322 times | ~60 fold | 4075 ± 360 pg/mg | 3181 ± 590 pg/mg | highly induced |
